In assay [1] the test system is E. coli DCO. The assay is described as follows: microbe, parasite or virus in culture. The conditions noted are these: Escherichia coli. An excerpt:
The antibacterial activity is described in terms of the minimum inhibitory concentration (MIC) determined by the agar-dilution technique with an inoculum size of 10^4 CFU/spot.

The test system of assay [2] is Enterobacter cloacae P99-. Briefly: antibacterial activity in vitro, agar-dilution MIC, Diagnostic Sensitivity Test, inoculum 10^4 CFU/spot. The class given is cell-based.
Assay [3] relates to B. fragilis AMP S. The assay is described as above. The class given is cell-based. To be noted: Bacteroides fragilis.
Assay [4] relates to S. aureus Oxford. The description is as above. The assay is classed as cell-based. To be noted: Staphylococcus aureus.
For assay [5], the system named is P. morganii I + 001. Described as above. The class given is cell-based. To be noted: Morganella morganii.

Where a name gives a salt, the structure may show the parent alone.

For `C[C@@H](O)[C@H]1C(=O)N2C(C(=O)O)=C(S[C@@H]3CN[C@H](C(=O)Nc4cc(C(=O)O)c5ncccc5c4)C3)[C@H](C)[C@H]12` [Example 1, (1R,5S,6S,8R,2'S,4'S) 2-(2-(8-Carboxyquinol-6-ylcarbamoyl)pyrrolidin-4-ylthio)-6-(1-hydroxyethyl)-1-methylcarbapenem-3-carboxylic Acid Disodium Salt], the MIC was found to be 0.03 µg/mL in assay [1]; 0.03 µg/mL in assay [2]; 0.5 µg/mL in assay [3]; 0.13 µg/mL in assay [4]; 0.03 µg/mL in assay [5].

The record behind these values is patent US5441949A, “Carbapenem antibiotic compounds” (Zeneca Limited, priority 1992, dated 1995).
